In US20070004763A1, “AMINOQUINOLINE AND AMINOQUINAZOLINE KINASE MODULATORS” (priority 2005, published 2007):

These compounds were tested against T1, TrkB (Homo sapiens, UniProt Q16620) (assay: Trk B Fluorescence Polarization Kinase Assay). Conditions: 150 uM ATP, 50 nM TrkB; uncertainty ±10%.
T1 construct: purchased Upstate 14-507M
T1 sequence (Q16620 526-822 limits assumed): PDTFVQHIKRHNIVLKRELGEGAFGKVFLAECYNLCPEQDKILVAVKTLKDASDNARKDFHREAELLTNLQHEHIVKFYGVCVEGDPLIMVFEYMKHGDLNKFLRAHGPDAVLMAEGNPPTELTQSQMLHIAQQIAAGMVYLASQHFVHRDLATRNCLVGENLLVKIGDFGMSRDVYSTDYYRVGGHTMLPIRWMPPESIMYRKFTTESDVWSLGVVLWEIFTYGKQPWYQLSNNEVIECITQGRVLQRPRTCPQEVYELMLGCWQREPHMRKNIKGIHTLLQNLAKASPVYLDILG
Type: biochemical
Description: The compounds of the present invention are also specific inhibitors of TrkB. Selection of preferred compounds of Formula I for use as TrkB inhibitors was performed in the following manner. The TrkB assay utilized the fluorescein-labeled phosphopeptide and the anti-phosphotyrosine antibody included in the Panvera Phospho-Tyrosine Kinase Kit (Green) supplied by Invitrogen. When TrkB phosphorylated poly Glu4Tyr, the fluorescein-labeled phosphopeptide was displaced from the anti-phosphotyrosine antibody by the phosphorylated poly Glu4Tyr, thus decreasing the FP value. The TrkB kinase reaction was incubated at room temperature for 30 minutes under the following conditions: 50 nM TrkB (Upstate, catalog #14-507M), 20 ug/mL poly Glu4Tyr, 150 uM ATP, 5 mM MgCl2, 1% compound in DMSO. The kinase reaction was stopped with the addition of EDTA. The fluorescein-labeled phosphopeptide and the anti-phosphotyrosine antibody were added and incubated for 30 minutes at room temperature. Data points were an average of triplicate samples. Inhibition and IC50 data analysis were done with GraphPad Prism using a non-linear regression fit with a multiparamater, sigmoidal dose-response (variable slope) equation.
COc1cc2ncnc(N3CCC(OC(=O)Nc4ccc(C(C)C)cc4)CC3)c2cc1OC [Compound 1, (4-Isopropyl-phenyl)-carbamic acid 1-(6,7-dimethoxy-quinazolin-4-yl)-piperidin-4-yl ester] showed an IC50 of 5.72 µM.
In the case of COc1cc2ncnc(N3CCC(OC(=O)Nc4ccc(C(C)C)cc4)C3)c2cc1OC (stereo not shown) [Compound 2, (4-Isopropyl-phenyl)-carbamic acid 1-(6,7-dimethoxy-quinazolin-4-yl)-pyrrolidin-3-yl ester], the IC50 is reported as 3.7 µM.
With COc1cc2ncnc(N3CCC(OC(=O)Nc4ccc(OC(C)C)cc4)CC3)c2cc1OC [Compound 3, (4-Isopropoxy-phenyl)-carbamic acid 1-(6,7-dimethoxy-quinazolin-4-yl)-piperidin-4-yl ester] the IC50 was 5.8 µM.
With COc1cc2ncnc(N3CCCC(COC(=O)Nc4ccc(C(C)C)cc4)C3)c2cc1OC (stereo not shown) [Compound 4] the IC50 was 8.4 µM.
COc1cc2ncnc(N3CCC(CC(=O)Nc4ccc(C(C)C)cc4)CC3)c2cc1OC [Compound 5, 2-[1-(6,7-Dimethoxy-quinazolin-4-yl)-piperidin-4-yl]-N-(4-isopropyl-phenyl)-acetamide] gave an IC50 of 2.4 µM.
Work on COc1cc2ncnc(N3CCC(CC(=O)Nc4ccc(C(C)C)cc4)C3)c2cc1OC (stereo not shown) [Compound 6, 2-[11-(6,7-Dimethoxy-quinazolin-4-yl)-pyrrolidin-3-yl]-N-(4-isopropyl-phenyl)-acetamide] yielded an IC50 of 0.1 µM.
Work on COc1cc2ncnc(N3CCC(NC(=O)Nc4ccc(OC(C)C)cc4)C3)c2cc1OC (stereo not shown) [Compound 8, 1-[1-(6,7-Dimethoxy-quinazolin-4-yl)-pyrrolidin-3-yl]-3-(4-isopropoxy-phenyl)-urea] yielded an IC50 of 3.65 µM.
COc1cc2ncnc(N3CCCC3COC(=O)Nc3ccc(C(C)C)cc3)c2cc1OC (stereo not shown) [Compound 9] gave an IC50 of 0.2 µM.
CC(C)c1ccc(NC(=O)OC2CCN(c3ccnc4ccccc34)CC2)cc1 [Compound 10] gave an IC50 of 6.5 µM.
COc1cc2ncnc(N3CCC(OC(=O)Nc4ccc(OC5CCC5)nc4)CC3)c2cc1OC [Compound 11, (6-Cyclobutoxy-pyridin-3-yl)-carbamic acid 1-(6,7-dimethoxy-quinazolin-4-yl)-piperidin-4-yl ester] gave an IC50 of 8.6 µM.
Work on COc1cc2ncnc(N3CCC(OC(=O)Nc4ccc(OC5CCC5)nc4)C3)c2cc1OC (stereo not shown) [Compound 12, (6-Cyclobutoxy-pyridin-3-yl)-carbamic acid 1-(6,7-dimethoxy-quinazolin-4-yl)-pyrrolidin-3-yl ester] yielded an IC50 of 21.7 µM.
With COc1cc2ncnc(N3CCC(C(=O)Nc4ccc(C(C)C)cc4)CC3)c2cc1OC [Compound 13, 1-(6,7-Dimethoxy-quinazolin-4-yl)-piperidine-4-carboxylic acid (4-isopropyl-phenyl)-amide] the IC50 was 0.16 µM.
CC(C)c1ccc(NC(=O)OC2CCN(c3ncnc4ccc(C#CCO)cc34)C2)cc1 (stereo not shown) [Compound 14, (4-Isopropyl-phenyl)-carbamic acid 1-[6-(3-hydroxy-prop-1-ynyl)-quinazolin-4-yl]-pyrrolidin-3-yl ester] showed an IC50 of 0.4 µM.
Compound COc1cc2ncnc(N3CCC(OC(=O)Nc4ccc(OC(C)C)cc4)C3)c2cc1OC (stereo not shown) [Compound 15, (4-Isopropoxy-phenyl)-carbamic acid 1-(6,7-dimethoxy-quinazolin-4-yl)-pyrrolidin-3-yl ester] has an IC50 of 12.5 µM.
CC(C)c1ccc(NC(=O)NC2CCN(c3ncnc4ccccc34)C2)cc1 (stereo not shown) [Compound 16, 1-(4-Isopropyl-phenyl)-3-(1-quinazolin-4-yl-pyrrolidin-3-yl) urea] showed an IC50 of 2.4 µM.
CCN(CC)CC#Cc1ccc2ncnc(N3CCC(OC(=O)Nc4ccc(C(C)C)cc4)C3)c2c1 (stereo not shown) [Compound 17, (4-Isopropyl-phenyl)-3-carbamic acid 1-[6-(3-diethylamino-prop-1-ynyl)-quinazolin-4-yl]-pyrrolidin-3-yl ester] was tested, and the IC50 was 3.6 µM.
Work on COc1cc2ncnc(N3CCC(CNC(=O)Nc4ccc(C(C)C)cc4)CC3)c2cc1OC [Compound 18, 1-[1-(6,7-Dimethoxy-quinazolin-4-yl)-piperidin-4-ylmethyl]-3-(4-isopropyl-phenyl)-urea] yielded an IC50 of 0.5 µM.
CC(C)c1ccc(NC(=O)OC2CCN(c3ncnc4ccc(I)cc34)C2)cc1 (stereo not shown) [Compound 20, (4-Isopropyl-phenyl)-carbamic acid 1-(6-iodo-quinazolin-4-yl)-pyrrolidin-3-yl ester] showed an IC50 of 13.1 µM.
With COc1cc2ncnc(N3CCC(NC(=O)Cc4ccc(C(C)C)cc4)CC3)c2cc1OC [Compound 21, N-[1-(6,7-Dimethoxy-quinazolin-4-yl)-piperidin-4-yl]-2-(4-isopropyl-phenyl)-acetamide] the IC50 was 11.2 µM.
With COc1cc2ncnc(N3CCC(COC(=O)Nc4ccc(C(C)C)cc4)CC3)c2cc1OC [Compound 22, (4-Isopropyl-phenyl)-carbamic acid 1-(6,7-dimethoxy-quinazolin-4-yl)-piperidin-4-ylmethyl ester] the IC50 was 0.8 µM.
With COc1cc2ncnc(N3CCC(C(=O)Nc4ccc(OC(C)C)cc4)CC3)c2cc1OC [Compound 23, 1-(6,7-Dimethoxy-quinazolin-4-yl)-piperidine-4-carboxylic acid (4-isopropoxy-phenyl)-amide] the IC50 was 0.55 µM.
CC(C)c1ccc(NC(=O)OC2CCN(c3ncnc4ccccc34)C2)cc1 (stereo not shown) [Compound 24, (4-Isopropyl-phenyl)-carbamic acid 1-quinazolin-4-yl-pyrrolidin-3-yl ester] was tested, and the IC50 was 5.5 µM.
Compound COc1cc2ncc(C#N)c(N3CCC(NC(=O)Nc4ccc(C(C)C)cc4)C3)c2cc1OC (stereo not shown) [Compound 26, 1-[1-(3-Cyano-6,7-dimethoxy-quinolin-4-yl)-pyrrolidin-3-yl]-3-(4-isopropyl-phenyl)-urea] has an IC50 of 10.9 µM.
Work on CC(C)c1ccc(NC(=O)NC2CCN(c3ccnc4ccccc34)C2)cc1 (stereo not shown) [Compound 27, (4-Isopropyl-phenyl)-3-(1-quinolin-4-yl)-pyrrolidin-3-yl-urea] yielded an IC50 of 7.7 µM.
Compound COc1cc2ncnc(N3CCCC(NC(=O)Nc4ccc(C(C)C)cc4)C3)c2cc1OC (stereo not shown) [Compound 28, 1-[1-(6,7-Dimethoxy-quinazolin-4-yl)-piperidin-3-yl]-3-(4-isopropyl-phenyl)-urea] has an IC50 of 0.3 µM.
In the case of COc1cc2ncc(C#N)c(N3CCC(NC(=O)Nc4ccc(OC(C)C)cc4)C3)c2cc1OC (stereo not shown) [Compound 29, 1-[1-(3-Cyano-6,7-dimethoxy-quinolin-4-yl)-pyrrolidin-3-yl]-3-(4-isopropoxy-phenyl)-urea], the IC50 is reported as 10.3 µM.
For COc1cc2ncnc(N3CCCC(OC(=O)Nc4ccc(C(C)C)cc4)C3)c2cc1OC (stereo not shown) [Compound 31, (4-Isopropyl-phenyl)-carbamic acid 1-[1-(6,7-dimethoxy-quinazolin-4-yl)-piperidin-3-yl]ester], the IC50 was 0.2 µM.
COc1cc2ncc(C#N)c(N3CCC(OC(=O)Nc4ccc(OC(C)C)cc4)C3)c2cc1OC (stereo not shown) [Compound 32, (4-Isopropoxy-phenyl)-carbamic acid 1-(3-cyano-6,7-dimethoxy-quinolin-4-yl)-pyrrolidin-3-yl ester] showed an IC50 of 5.3 µM.
In the case of COc1cc2ncnc(N3CCCCC3COC(=O)Nc3ccc(C(C)C)cc3)c2cc1OC (stereo not shown) [Compound 33, (4-Isopropyl-phenyl)-carbamic acid 1-(6,7-dimethoxy-quinazolin-4-yl)-piperidin-2-ylmethyl ester], the IC50 is reported as 5 µM.
With CC(C)c1ccc(NC(=O)OC2CCN(c3ccnc4ccccc34)C2)cc1 (stereo not shown) [Compound 34] the IC50 was 7.6 µM.
For COc1cc2ncnc(N3CCC(NC(=O)Cc4ccc(C(C)C)cc4)C3)c2cc1OC (stereo not shown) [Compound 35, N-[1-(6,7-Dimethoxy-quinazolin-4-yl)-pyrrolidin-3-yl]-2-(4-isopropyl-phenyl)-acetamide], the IC50 was 6.5 µM.
In the case of COc1cc2ncc(C#N)c(N3CCC(OC(=O)Nc4ccc(C(C)C)cc4)C3)c2cc1OC (stereo not shown) [Compound 37, (4-Isopropyl-phenyl)-carbamic acid 1-(3-cyano-6,7-dimethoxy-quinolin-4-yl)-pyrrolidin-3-yl ester], the IC50 is reported as 8.48 µM.
CC(C)Oc1ccc(NC(=O)NC2CCN(c3ccnc4ccccc34)C2)cc1 (stereo not shown) [Compound 38, (4-Isopropoxy-phenyl)-3-(1-quinolin-4-yl)-pyrrolidin-3-yl-urea] showed an IC50 of 26.8 µM.
CC(C)Oc1ccc(NC(=O)OC2CCN(c3ccnc4ccccc34)C2)cc1 (stereo not shown) [Compound 39] was tested, and the IC50 was 9.1 µM.
With COc1cc2ncc(C#N)c(N3CCC(OC(=O)Nc4ccc(OC(C)C)cc4)CC3)c2cc1OC [Compound 40, (4-Isopropoxy-phenyl)-carbamic acid 1-(3-cyano-6,7-dimethoxy-quinolin-4-yl)-piperidin-4-yl ester] the IC50 was 11.8 µM.
CC(C)Oc1ccc(NC(=O)OC2CCN(c3ccnc4ccccc34)CC2)cc1 [Compound 41] was tested, and the IC50 was 14 µM.
For COc1cc2ncc(C#N)c(N3CCC(OC(=O)Nc4ccc(C(C)C)cc4)CC3)c2cc1OC [Compound 42, (4-Isopropyl-phenyl)-carbamic acid 1-(3-cyano-6,7-dimethoxy-quinolin-4-yl)-piperidin-4-yl ester], the IC50 was > 42 µM.
For COc1cc2ncnc(N3CCC(NC(=O)Nc4ccc(N5CCOCC5)cc4)C3)c2cc1OC (stereo not shown) [Compound 43, 1-[1-(6,7-Dimethoxy-quinazolin-4-yl)-pyrrolidin-3-yl]-3-(4-morpholin-4-yl-phenyl)-urea], the IC50 was 40.6 µM.
With COc1cc2ncnc(N3CCC(NC(=O)Nc4ccc(OC5CCC5)nc4)C3)c2cc1OC (stereo not shown) [Compound 44, 1-(6-Cyclobutoxy-pyridin-3-yl)-3-[1-(6,7-dimethoxy-quinazolin-4-yl)-pyrrolidin-3-yl]-urea] the IC50 was 4.88 µM.
For COc1cc2ncnc(N3CCC(NC(=O)Nc4ccc(OC5CCCC5)nc4)C3)c2cc1OC (stereo not shown) [Compound 45, 1-(6-Cyclopentyloxy-pyridin-3-yl)-3-[1-(6,7-dimethoxy-quinazolin-4-yl)-pyrrolidin-3-yl]-urea], the IC50 was 11.8 µM.
